According to patent publication US9770445B2, “Sulfoximine substituted 5-fluoro-N-(pyridin-2-yl)pyridin-2-amine derivatives and their use as CDK9 kinase inhibitors” (BAYER PHARMA AKTIENGESELLSCHAFT, priority 2013, dated 2017):

tested on: MOLM-13 human acute myeloid leukemia cells; experiment: Proliferation assay, MOLM-13 (Cell Titre-Glo); type: cell-based; settings: MOLM-13, 72-hour exposure, read-out: Inhibition of MOLM-13 cell proliferation
Protocol: Non-adherent MOLM-13 human acute myeloid leukemia cells (DSMZ ACC 554) were seeded at a density of 5,000 cells/well in a 96-well multititer plate in 100 μL of growth medium supplemented 10% fetal calf serum. After 24 hours, cell viability of one plate (zero-point plate) was determined with the Cell Titre-Glo Luminescent Cell Viability Assay (Promega), while 50 μL of test compound containing medium was added to the wells of the other plates (final concentrations in the range of 0.001-10 μM and DMSO controls; the final concentration of the solvent dimethyl sulfoxide was 0.5%). Cell viability was assessed after 72-hour exposure with the Cell Titre-Glo Luminescent Cell Viability Assay (Promega). IC50 values (inhibitory concentration at 50% of maximal effect) were determined by means of a 4 parameter fit on measurement data which were normalized to vehicle (DMSO) treated cells (=100%) and measurement readings taken immediately before compound exposure (=0%).

Structure (SMILES) | IC50
CCc1cc(CS(C)(=N)=O)cc(Nc2cc(-c3ccc(F)c4ccoc34)c(F)cn2)n1 (racemic) [Example 8, (rac)-N-{6-Ethyl-4-[(S-methylsulfonimidoyl)methyl]pyridin-2-yl}-5-fluoro-4-(4-fluoro-1-benzofuran-7-yl)pyridin-2-amine] | 3.9 nM
CS(=N)(=O)Cc1cc(Nc2cc(-c3ccc(F)c4ccoc34)c(F)cn2)nc(C(F)(F)F)c1 (racemic) [Example 3, (rac)-5-Fluoro-4-(4-fluoro-1-benzofuran-7-yl)-N-{4-[(S-methylsulfonimidoyl)methyl]-6-(trifluoromethyl)pyridin-2-yl}pyridin-2-amine] | 6 nM
Cc1cc(CS(C)(=N)=O)cc(Nc2cc(-c3ccc(F)c4ccoc34)c(F)cn2)n1 (racemic) [Example 7, (rac)-5-Fluoro-4-(4-fluoro-1-benzofuran-7-yl)-N-{6-methyl-4-[(S-methylsulfonimidoyl)-methyl]pyridin-2-yl}pyridin-2-amine] | 6.3 nM
CS(=N)(=O)Cc1cc(F)nc(Nc2cc(-c3ccc(F)c4ccoc34)c(F)cn2)c1 (racemic) [Example 1, (rac)-5-Fluoro-4-(4-fluoro-1-benzofuran-7-yl)-N-{6-fluoro-4-[(S-methylsulfonimidoyl)methyl]pyridin-2-yl}pyridin-2-amine] | 16 nM
CS(=N)(=O)Cc1ccnc(Nc2cc(-c3ccc(F)c4ccoc34)c(F)cn2)c1 (racemic) [Example 5, (rac)-5-Fluoro-4-(4-fluoro-1-benzofuran-7-yl)-N-{4-[(S-methylsulfonimidoyl)methyl]pyridin-2-yl}pyridin-2-amine] | 18 nM
